# In US8895277B2, “Legume isoprene synthase for production of isoprene” (Danisco US Inc., priority 2012, dated 2014):
# What was measured:
# [1] = target: Populus alba isoprene synthase, P. alba variant 1 (Populus alba, UniProt Q50L36); assay type: biochemical; details: substrate DMAPP; 34° C.; Avg Value
# [2] = target: Populus alba isoprene synthase, P. alba variant 2 (Populus alba, UniProt Q50L36); assay type: biochemical; details: substrate DMAPP; 34° C.; Avg Value
# [3] = test system: E. coli expressing P. alba variant 2 IspS
# [4] = test system: E. coli expressing P. alba variant 1 IspS; test: DMAPP toxicity relief: growth in presence of MVA; details: 15 to 75 mM MVA; FIG. 13
# [5] = test system: E. coli expressing P. alba variant 3 IspS; test: DMAPP toxicity relief: growth in presence of MVA; details: FIG. 13
# [6] = test system: E. coli expressing A. hypogaea IspS; test: DMAPP toxicity relief: growth in presence of MVA; details: FIG. 13
# [7] = substrate: CC(C)=CCOP(=O)(O)OP(=O)(O)O; test: purified protein, by the assay type; details: other: substrate DMAPP, 34° C., Avg Value
molecule,measurement,setting,value
"CC(C)=CCOP(=O)(O)OP(=O)(O)O [DMAPP, 3,3-dimethylallyl diphosphate]",Km,[1],2790 µM
same,Km,[2],2880 µM
"C[C@@](O)(CCO)CC(=O)O [MVA, mevalonic acid]",MVA concentration at which growth was inhibited,[3],higher than 15 mM
same,Growth inhibition by MVA,[4],growth was inhibited at any concentration of MVA tested
same,MVA concentration at which growth was partially inhibited,[5],at least 30 mM
same,MVA concentration at which significant growth was seen,[6],15 to 45 mM
"Arachis hypogaea isoprene synthase (A. hypogaea IspS), SEQ ID NO: 3 (Arachis hypogaea) (protein) MNTRRSANYQPNLWDFEFLQSVENDLQVERLEERARKLEEEVRGLMKKVEIEPLSLLELMDNVERLGLTYKFEEDIKSALNNRIVPLLHHHTINKYGLHATALSFRFLRQHAFHVSPDVFESFKEEGKFKKEISGDVLGLLNLYETSYLGFEGETILDEARAFSATHLKNLLQTNQVQNKVMAEKVRHALELPYHRRVHRLEARWFIERYEQKEAHDGALLELAKLDFNMVQSVMKKELQELSRWWREIGLTSKLDFVRDRLMEVYFWALGMAPHPQLTECRKAVTKMFGLVTIIDDVYDVYGTLDELQLFTDAVDRWDVNAVETLPDYMKLCYLALYNSVNDTAYSTLREKGDNSLPHLAKSWRDLCKAFLQEAKWSNNKIIPPFDAYIRNASVSSSGGALLAPCYFSVTQDSTSQAIDSITNYHGIVRSSCAIFRLCNDLATSAAELERGETTNSITSYMTENGTTEEEARESLGKLIDQEWKKMNRDVVLESAYPNVFKEIAINMARVSHCTYQYGDGLGRPDDTAENRIKLSLIEPIPIN",Km,[7],18300 µM
"Populus alba isoprene synthase (P. alba IspS), wild type (WT) (Populus alba) (protein) MEARRSANYEPNSWDYDYLLSSDTDESIEVYKDKAKKLEAEVRREINNEKAEFLTLLELIDNVQRLGLGYRFESDIRGALDRFVSSGGFDAVTKTSLHGTALSFRLLRQHGFEVSQEAFSGFKDQNGNFLENLKEDIKAILSLYEASFLALEGENILDEAKVFAISHLKELSEEKIGKELAEQVNHALELPLHRRTQRLEAVWSIEAYRKKEDANQVLLELAILDYNMIQSVYQRDLRETSRWWRRVGLATKLHFARDRLIESFYWAVGVAFEPQYSDCRNSVAKMFSFVTIIDDIYDVYGTLDELELFTDAVERWDVNAINDLPDYMKLCFLALYNTINEIAYDNLKDKGENILPYLTKAWADLCNAFLQEAKWLYNKSTPTFDDYFGNAWKSSSGPLQLVFAYFAVVQNIKKEEIENLQKYHDTISRPSHIFRLCNDLASASAEIARGETANSVSCYMRTKGISEELATESVMNLIDETWKKMNKEKLGGSLFAKPFVETAINLARQSHCTYHNGDAHTSPDELTRKRVLSVITEPILPFER",Km,[7],2830 µM
